Test results published in patent US8163793B2, “Proline derivatives” (Hoffman-La Roche Inc., priority 2009, dated 2012).

target: Cat L (UniProt P07711); assay: Cathepsin enzyme inhibition assay (fluorogenic peptide substrate Z-Val-Val-Arg-AMC), Cathepsin L; assay type: biochemical, human and mouse; details: enzyme 1 nM, substrate 20 μM, pH 6.5; read-out: CatL IC50
Protocol: (§1) Cathepsin Enzyme Inhibition Assay
(§2) Enzyme activity is measured by observing the increase in fluorescence intensity caused by cleavage of a peptide substrate containing a fluorophore whose emission is quenched in the intact peptide.
(§3) Assay buffer: 100 mM potassium phosphate pH 6.5, EDTA-Na 5 mM, Triton X-100 0.001%, DDT 5 mM.
(§4) Enzymes (all at 1 nM): human and mouse Cathepsin S, Cat K, Cat B, Cat L Substrate (20 μM): Z-Val-Val-Arg-AMC, except for Cat K which uses Z-Leu-Arg-AMC (both from Bachem).
(§5) AMC=7-Amino-4-Methyl-Coumarin.
Excitation 360 nm, Emission 465 nm.
Enzyme is added to the substance dilutions in 96-well microtitre plates and the reaction is started with substrate. Fluorescence emission is measured over 20 minutes, during which time a linear increase is observed in the absence of inhibitor. IC50 are calculated by standard methods. The results are expressed in μM in the following table.

IC50 [nM]	Compound
≥ 25000	N#CC1(NC(=O)[C@@H]2C[C@@H](S(=O)(=O)c3ccccc3C(F)(F)F)CN2c2ncccc2C(F)(F)F)CC1 [Example 186, (2S,4R)-4-(2-Trifluoromethyl-benzenesulfonyl)-1-(3-trifluoromethyl-pyridin-2-yl)-pyrrolidine-2-carboxylic acid (1-cyano-cyclopropyl)-amide]
≥ 25000	N#CC1(NC(=O)[C@@H]2C[C@@H](S(=O)(=O)c3ccccc3C(F)(F)F)CN2c2ccccc2)CC1 [Example 119, (2S,4R)-1-Phenyl-4-(2-trifluoromethyl-benzenesulfonyl)-pyrrolidine-2-carboxylic acid (1-cyano-cyclopropyl)-amide]

More lines, now with the values behind:

Compound	IC50 [nM]
N#CC1(NC(=O)[C@@H]2C[C@@H](S(=O)(=O)c3ccccc3C(F)(F)F)CN2c2ccnc(C(F)(F)F)n2)CC1 [Example 185, (2S,4R)-4-(2-Trifluoromethyl-benzenesulfonyl)-1-(2-trifluoromethyl-pyrimidin-4-yl)-pyrrolidine-2-carboxylic acid (1-cyano-cyclopropyl)-amide]	≥ 25000
N#CCNC(=O)[C@@H]1C[C@@H](S(=O)(=O)c2ccccc2C(F)(F)F)CN1c1ccccc1 [Example 151, (2S,4R)-1-Phenyl-4-(2-trifluoromethyl-benzenesulfonyl)-pyrrolidine-2-carboxylic acid cyanomethyl-amide]	≥ 25000

target: Cathepsin S (UniProt P25774); assay: Cathepsin enzyme inhibition assay (fluorogenic peptide substrate Z-Val-Val-Arg-AMC), Cathepsin S; assay type: biochemical, human and mouse; details: enzyme 1 nM, substrate 20 μM, pH 6.5; read-out: CatS IC50
Protocol: as §1, §2, §3, §4, §5
Enzyme is added to the substance dilutions in 96-well microtitre plates and the reaction is started with substrate. […] IC50 are calculated by standard methods. The results are expressed in μM in the following table.

IC50 [nM]	Compound
0.08	N#CC1(NC(=O)[C@@H]2C[C@@H](S(=O)(=O)c3ccc(-n4ccnc4)cc3Cl)CN2C(=O)C2(c3ccc(Cl)cc3)CC2)CC1 [Example 325, (2S,4R)-4-(2-Chloro-4-imidazol-1-yl-benzenesulfonyl)-1-[1-(4-chloro-phenyl)-cyclopropanecarbonyl]-pyrrolidine-2-carboxylic acid (1-cyano-cyclopropyl)-amide]
0.18	Cc1nccn1-c1ccc(S(=O)(=O)[C@@H]2C[C@@H](C(=O)NC3(C#N)CC3)N(C(=O)C3(c4ccc(Cl)cc4)CC3)C2)c(Cl)c1 [Example 326, (2S,4R)-4-[2-Chloro-4-(2-methyl-imidazol-1-yl)-benzenesulfonyl]-1-[1-(4-chloro-phenyl)-cyclopropanecarbonyl]-pyrrolidine-2-carboxylic acid (1-cyano-cyclopropyl)-amide]
0.09	CN1CCN(c2ccc(S(=O)(=O)[C@@H]3C[C@@H](C(=O)NC4(C#N)CC4)N(C(=O)C4(c5ccc(Cl)cc5)CC4)C3)c(Cl)c2)CC1 [Example 324, (2S,4R)-4-[2-Chloro-4-(4-methyl-piperazin-1-yl)-benzenesulfonyl]-1-[1-(4-chloro-phenyl)-cyclopropanecarbonyl]-pyrrolidine-2-carboxylic acid (1-cyano-cyclopropyl)-amide]
0.52	Cc1ccc(C2(C(=O)N3C[C@H](S(=O)(=O)c4ccccc4Cl)C[C@H]3C(=O)NC3(C#N)CC3)CC2)cc1 [Example 438, (2S,4R)-4-(2-chlorophenylsulfonyl)-N-(1-cyanocyclopropyl)-1-(1-p-tolylcyclopropane-carbonyl)pyrrolidine-2-carboxamide]
61900	N#CC1(NC(=O)[C@@H]2C[C@@H](S(=O)(=O)Cc3ccccc3)CN2C(=O)C2(c3ccc(Cl)cc3)CC2)CC1 [Example 458, (2S,4R)-4-(benzylsulfonyl)-1-(1-(4-chlorophenyl)cyclopropanecarbonyl)-N-(1-cyanocyclopropyl)pyrrolidine-2-carboxamide]
14.7	N#CC1(NC(=O)[C@@H]2C[C@@H](S(=O)(=O)c3ccc(N4CCN(CC(F)(F)F)CC4)cc3Cl)CN2C(=O)C2(C(F)(F)F)CC2)CC1 [Example 291, (2S,4R)-4-{2-Chloro-4-[4-(2,2,2-trifluoro-ethyl)-piperazin-1-yl]-benzenesulfonyl}-1-(1-trifluoromethyl-cyclopropanecarbonyl)-pyrrolidine-2-carboxylic acid (1-cyano-cyclopropyl)-amide]

Second part, the compound before the results:

Compound	IC50 [nM]
CN1CCN(c2ccc(S(=O)(=O)[C@@H]3CC(C(=O)NC4(C#N)CC4)N(C(=O)C4(C(F)(F)F)CC4)C3)c(Cl)c2)CC1 (stereo partly drawn) [Example 305, (R)-4-[2-Chloro-4-(4-methyl-piperazin-1-yl)-benzenesulfonyl]-1-(1-trifluoromethyl-cyclopropanecarbonyl)-pyrrolidine-2-carboxylic acid (1-cyano-cyclopropyl)-amide]	19.7
CC(C)(C)OC(=O)N1C[C@H](S(=O)(=O)c2c(Cl)cccc2Cl)C[C@H]1C(=O)NC1(C#N)CC1 [Example 47, (2S,4R)-2-(1-Cyano-cyclopropylcarbamoyl)-4-(2,6-dichloro-benzenesulfonyl)-pyrrolidine-1-carboxylic acid tert-butyl ester]	1.4
N#CC1(NC(=O)[C@@H]2C[C@@H](S(=O)(=O)c3ccc(F)cc3Cl)CN2C(=O)C2(c3ccc(Cl)cc3)CC2)CC1 [Example 312, (2S,4R)-4-(2-Chloro-4-fluoro-benzenesulfonyl)-1-[1-(4-chloro-phenyl)-cyclopropanecarbonyl]-pyrrolidine-2-carboxylic acid (1-cyano-cyclopropyl)-amide]	0.195
Cc1cc(N2C[C@H](S(=O)(=O)c3ccccc3C(F)(F)F)C[C@H]2C(=O)NC2(C#N)CC2)nn1C [Example 255, (2S,4R)-1-(1,5-Dimethyl-1H-pyrazol-3-yl)-4-(2-trifluoromethyl-benzenesulfonyl)-pyrrolidine-2-carboxylic acid (1-cyano-cyclopropyl)-amide]	5.65
N#CC1(NC(=O)[C@@H]2C[C@@H](S(=O)(=O)c3ccc(-c4ccc(F)cc4F)cc3C(F)(F)F)CN2C(=O)C2(C(F)(F)F)CC2)CC1 [Example 263, (2S,4R)-4-(2′,4′-Difluoro-3-trifluoromethyl-biphenyl-4-sulfonyl)-1-(1-trifluoromethyl-cyclopropanecarbonyl)-pyrrolidine-2-carboxylic acid (1-cyano-cyclopropyl)-amide]	0.33
CC(C)(C)N1CCN(c2ccc(S(=O)(=O)[C@@H]3C[C@@H](C(=O)NC4(C#N)CC4)N(C(=O)C4(c5ccc(Cl)cc5)CC4)C3)c(Cl)c2)CC1 [Example 329, (2S,4R)-4-[4-(4-tert-Butyl-piperazin-1-yl)-2-chloro-benzenesulfonyl]-1-[1-(4-chloro-phenyl)-cyclopropanecarbonyl]-pyrrolidine-2-carboxylic acid (1-cyano-cyclopropyl)-amide]	0.115
Cc1cc(N2C[C@H](S(=O)(=O)c3ccc(N4CCN(C)CC4)cc3C(F)(F)F)C[C@H]2C(=O)NC2(C#N)CC2)n(C2CCOCC2)n1 [Example 404, (2S,4R)-4-[4-(4-Methyl-piperazin-1-yl)-2-trifluoromethyl-benzenesulfonyl]-1-[5-methyl-2-(tetrahydro-pyran-4-yl)-2H-pyrazol-3-yl]-pyrrolidine-2-carboxylic acid (1-cyano-cyclopropyl)-amide]	0.405
Cc1cc(N2C[C@H](S(=O)(=O)c3ccc(N4CC(F)(F)C4)cc3C(F)(F)F)C[C@H]2C(=O)NC2(C#N)CC2)n(C2CCOCC2)n1 [Example 403, (2S,4R)-4-[4-(3,3-Difluoro-azetidin-1-yl)-2-trifluoromethyl-benzenesulfonyl]-1-[5-methyl-2-(tetrahydro-pyran-4-yl)-2H-pyrazol-3-yl]-pyrrolidine-2-carboxylic acid (1-cyano-cyclopropyl)-amide]	0.49
CC(C)c1nccn1-c1ccc(S(=O)(=O)[C@@H]2C[C@@H](C(=O)NC3(C#N)CC3)N(C(=O)C3(c4ccc(Cl)cc4)CC3)C2)c(Cl)c1 [Example 336, (2S,4R)-4-[2-Chloro-4-(2-isopropyl-imidazol-1-yl)-benzenesulfonyl]-1-[1-(4-chloro-phenyl)-cyclopropanecarbonyl]-pyrrolidine-2-carboxylic acid (1-cyano-cyclopropyl)-amide]	0.33
N#CC1(NC(=O)[C@@H]2C[C@@H](S(=O)(=O)c3ccccc3Cl)CN2C(=O)C2(c3ccc(Cl)cc3)CC2)CC1 [Example 215, (2S,4R)-4-(2-Chloro-benzenesulfonyl)-1-[1-(4-chloro-phenyl)-cyclopropanecarbonyl]-pyrrolidine-2-carboxylic acid (1-cyano-cyclopropyl)-amide]	0.2
Cc1cc(N2C[C@H](S(=O)(=O)c3ccccc3C(F)(F)F)C[C@H]2C(=O)NC2(C#N)CC2)n[nH]1 [Example 286, (2S,4R)-1-(5-Methyl-1H-pyrazol-3-yl)-4-(2-trifluoromethyl-benzenesulfonyl)-pyrrolidine-2-carboxylic acid (1-cyano-cyclopropyl)-amide]	15
N#CC1(NC(=O)[C@@H]2C[C@@H](S(=O)(=O)c3ccc(-n4cccn4)cc3Cl)CN2C(=O)C2(c3ccc(Cl)cc3)CC2)CC1 [Example 327, (2S,4R)-1-[1-(4-Chloro-phenyl)-cyclopropanecarbonyl]-4-(2-chloro-4-pyrazol-1-yl-benzenesulfonyl)-pyrrolidine-2-carboxylic acid (1-cyano-cyclopropyl)-amide]	0.175
N#CC1(NC(=O)[C@@H]2C[C@@H](S(=O)(=O)c3ccc(N4CCN(C5CC5)CC4)cc3Cl)CN2C(=O)C2(c3ccc(Cl)cc3)CC2)CC1 [Example 330, (2S,4R)-4-[2-Chloro-4-(4-cyclopropyl-piperazin-1-yl)-benzenesulfonyl]-1-[1-(4-chloro-phenyl)-cyclopropanecarbonyl]-pyrrolidine-2-carboxylic acid (1-cyano-cyclopropyl)-amide]	0.08
